Measurements as given in the NIST ThermoML archive (doi:10.1016/j.tca.2014.03.030).
Numbers after ± are expanded uncertainties.

Assays:
[1] = Molar enthalpy of transition or fusion
[2] = DTA

| Molar enthalpy of transition or fusion ([1]; Crystal) [kcal/mol] | Normal melting temperature ([2]; Crystal) [°C] | Molar enthalpy of transition or fusion ([1]; Crystal 1) [kcal/mol] | Normal melting temperature ([2]; Crystal 1) [°C] | Compound |
| --- | --- | --- | --- | --- |
| 5.08 ± 0.311 | 81.47 ± 2.1 | – | – | CCCCCCCCCC(=O)NCCc1ccc(O)cc1 [N-[2-(4-hydroxyphenyl)ethyl]decanamide] |
| 6.69 ± 0.382 | 91.39 ± 2.1 | – | – | CCCCCCCCCCCC(=O)NCCc1ccc(O)cc1 [N-[2-(4-hydroxyphenyl)ethyl]dodecanamide] |
| – | – | 11.8 ± 0.645 | 103.76 ± 2.1 | CCCCCCCCCCCCCCCC(=O)NCCc1ccc(O)cc1 [N-[2-(4-hydroxyphenyl)ethyl]hexadecanamide] |
| – | – | 10.4 ± 0.574 | 98.1 ± 2.1 | CCCCCCCCCCCCCC(=O)NCCc1ccc(O)cc1 [N-[2-(4-hydroxyphenyl)ethyl]tetradecanamide] |
